# Test results published in patent US20240132484A1, “BROAD SPECTRUM ANTIVIRAL COMPOUNDS TARGETING THE SKI COMPLEX” (priority 2020, published 2024).
# Several values for one entry are separate records, joined by “and”; a condition that tells them apart may be missing. Equal values may be shown once. Read-outs that look alike come from different tables or passages of the source.
# Experiments:
# SARS2 = format: cell-based, SARS-CoV-2; conditions: for Infection Data, Percentage Infection Relative to Appropriate DMSO Control with Avg Background Subtraction: duplicate wells; for Infection Data, Average, Mean (Percentage Infection Relative to Appropriate DMSO Control): average of Exp 1 and Exp 2, n=4; for Percentage Inhibition Average 1 μM / Screening data (Relative infection to DMSO controls) Average 1 μM: SARS2, 1 μM; for Screening data (Relative infection to DMSO controls) Average 1 μM / Screening data (Relative infection to DMSO controls) Average 5 μM / Screening data (Relative infection to DMSO controls) Average 10 μM / Screening data (Relative infection to DMSO controls) Average 25 μM / Screening data (Relative infection to DMSO controls) Average 50 μM / Average (relative infection to DMSO over the 5 tested concentrations): 100=DMSO control; for Percentage Inhibition Average 5 μM / Screening data (Relative infection to DMSO controls) Average 5 μM: SARS2, 5 μM; for Percentage Inhibition Average 10 μM / Screening data (Relative infection to DMSO controls) Average 10 μM: SARS2, 10 μM; for Percentage Inhibition Average 25 μM / Screening data (Relative infection to DMSO controls) Average 25 μM: SARS2, 25 μM; for Percentage Inhibition Average 50 μM / Screening data (Relative infection to DMSO controls) Average 50 μM: SARS2, 50 μM; for Average (relative infection to DMSO over the 5 tested concentrations): SARS2, average over 1 to 50 uM
# cells (nuclei count) = conditions: for Toxicity Data, Average, Mean (percentage relative to appropriate DMSO control): average of Exp 1 and Exp 2, n=4; for Relative cell count to DMSO controls, Average 1 μM / Relative cell count to DMSO controls, Average 5 μM / Relative cell count to DMSO controls, Average 10 μM / Relative cell count to DMSO controls, Average 25 μM / Relative cell count to DMSO controls, Average 50 μM: toxicity data, 100=DMSO control; for Relative cell count to DMSO controls, Average (for correlation analysis): average value over the 5 tested concentrations (1 to 50 uM)
Compound,"Infection Data, Average, Mean (Percentage Infection Relative to Appropriate DMSO Control) (SARS2; 1 uM) [%]","Infection Data, Average, Mean (Percentage Infection Relative to Appropriate DMSO Control) (SARS2; 5 uM) [%]","Infection Data, Average, Mean (Percentage Infection Relative to Appropriate DMSO Control) (SARS2; 10 uM) [%]",Percentage Inhibition Average 1 μM (SARS2) [%],Screening data (Relative infection to DMSO controls) Average 1 μM (SARS2),Percentage Inhibition Average 5 μM (SARS2) [%],Screening data (Relative infection to DMSO controls) Average 5 μM (SARS2),Percentage Inhibition Average 10 μM (SARS2) [%],Screening data (Relative infection to DMSO controls) Average 10 μM (SARS2),Percentage Inhibition Average 25 μM (SARS2) [%],Screening data (Relative infection to DMSO controls) Average 25 μM (SARS2),Percentage Inhibition Average 50 μM (SARS2) [%],Screening data (Relative infection to DMSO controls) Average 50 μM (SARS2),Average (relative infection to DMSO over the 5 tested concentrations) (SARS2),"Relative cell count to DMSO controls, Average 1 μM (cells (nuclei count))","Relative cell count to DMSO controls, Average 5 μM (cells (nuclei count))","Relative cell count to DMSO controls, Average 10 μM (cells (nuclei count))","Relative cell count to DMSO controls, Average 25 μM (cells (nuclei count))","Relative cell count to DMSO controls, Average 50 μM (cells (nuclei count))","Relative cell count to DMSO controls, Average (for correlation analysis) (cells (nuclei count))",also measured
CC1=C(C(=O)NC2CCCCCC2)C(c2cccs2)NC(=O)N1 (stereo not drawn) [SILCS61],68.10,48.94,56.92,31.90,68.10,51.06,48.94,43.08,56.92,56.59,43.41,96.88,3.12,44.10,106.46,110.71,107.86,109.52,104.46,107.80,"Infection Data, Percentage Infection Relative to Appropriate DMSO Control with Avg Background Subtraction (SARS2; 1 uM, Exp 1 (SMW506), listed as SICLS61): 73.61% and 82.18%; Infection Data, Percentage Infection Relative to Appropriate DMSO Control with Avg Background Subtraction (SARS2; 1 uM, Exp 2 (SMW492), SILCS 61-66 and 67-72 plates, listed as SICLS61): 57.97% and 58.62%; Infection Data, Percentage Infection Relative to Appropriate DMSO Control with Avg Background Subtraction (SARS2; 5 uM, Exp 1 (SMW506), listed as SICLS61): 41.43% and 63.29%; Infection Data, Percentage Infection Relative to Appropriate DMSO Control with Avg Background Subtraction (SARS2; 5 uM, Exp 2 (SMW492), SILCS 61-66 and 67-72 plates, listed as SICLS61): 38.94% and 52.11%; Infection Data, Percentage Infection Relative to Appropriate DMSO Control with Avg Background Subtraction (SARS2; 10 uM, Exp 1 (SMW506), listed as SICLS61): 73.81% and 87.85%; Infection Data, Percentage Infection Relative to Appropriate DMSO Control with Avg Background Subtraction (SARS2; 10 uM, Exp 2 (SMW492), SILCS 61-66 and 67-72 plates, listed as SICLS61): 33.45% and 32.58%; Infection Data, Percentage Infection Relative to Appropriate DMSO Control with Avg Background Subtraction (SARS2; 25 uM, Exp 1 (SMW506), listed as SICLS61): 51.60% and 90.77%; Infection Data, Average, Mean (Percentage Infection Relative to Appropriate DMSO Control) (SARS2; 25 uM): 43.41%; Infection Data, Percentage Infection Relative to Appropriate DMSO Control with Avg Background Subtraction (SARS2; 50 uM, Exp 1 (SMW506), listed as SICLS61): −4.48% and −4.80%; Infection Data, Percentage Infection Relative to Appropriate DMSO Control with Avg Background Subtraction (SARS2; 50 uM, Exp 2 (SMW492), SILCS 61-66 and 67-72 plates, listed as SICLS61): 11.69% and 10.06%; Infection Data, Average, Mean (Percentage Infection Relative to Appropriate DMSO Control) (SARS2; 50 uM): 3.12%; Toxicity Data, Average, Mean (percentage relative to appropriate DMSO control) (cells (nuclei count); 1 uM): 106.46%; Toxicity Data, Average, Mean (percentage relative to appropriate DMSO control) (cells (nuclei count); 5 uM): 110.71%; Toxicity Data, Average, Mean (percentage relative to appropriate DMSO control) (cells (nuclei count); 10 uM): 107.86%; Toxicity Data, Average, Mean (percentage relative to appropriate DMSO control) (cells (nuclei count); 25 uM): 109.52%; Toxicity Data, Average, Mean (percentage relative to appropriate DMSO control) (cells (nuclei count); 50 uM): 104.46%"
CC1=C(C(=O)NCC2CCC2)C(c2cccs2)NC(=O)N1 (stereo not drawn) [SILCS62],68.14,30.37,46.35,31.86,68.14,69.63,30.37,53.65,46.35,48.59,51.41,76.12,23.88,44.03,112.47,123.92,116.29,106.51,98.08,111.45,"Infection Data, Percentage Infection Relative to Appropriate DMSO Control with Avg Background Subtraction (SARS2; 1 uM, Exp 1 (SMW506), listed as SICLS62): 84.10% and 102.05%; Infection Data, Percentage Infection Relative to Appropriate DMSO Control with Avg Background Subtraction (SARS2; 1 uM, Exp 2 (SMW492), SILCS 61-66 and 67-72 plates, listed as SICLS62): 50.01% and 36.38%; Infection Data, Percentage Infection Relative to Appropriate DMSO Control with Avg Background Subtraction (SARS2; 5 uM, Exp 1 (SMW506), listed as SICLS62): 45.05% and 53.24%; Infection Data, Percentage Infection Relative to Appropriate DMSO Control with Avg Background Subtraction (SARS2; 5 uM, Exp 2 (SMW492), SILCS 61-66 and 67-72 plates, listed as SICLS62): 9.05% and 14.15%; Infection Data, Percentage Infection Relative to Appropriate DMSO Control with Avg Background Subtraction (SARS2; 10 uM, Exp 1 (SMW506), listed as SICLS62): 84.98% and 89.35%; Infection Data, Percentage Infection Relative to Appropriate DMSO Control with Avg Background Subtraction (SARS2; 10 uM, Exp 2 (SMW492), SILCS 61-66 and 67-72 plates, listed as SICLS62): 5.57% and 5.50%; Infection Data, Percentage Infection Relative to Appropriate DMSO Control with Avg Background Subtraction (SARS2; 25 uM, Exp 1 (SMW506), listed as SICLS62): 83.54% and 119.74%; Infection Data, Percentage Infection Relative to Appropriate DMSO Control with Avg Background Subtraction (SARS2; 25 uM, Exp 2 (SMW492), SILCS 61-66 and 67-72 plates, listed as SICLS62): 1.62% and 0.75%; Infection Data, Average, Mean (Percentage Infection Relative to Appropriate DMSO Control) (SARS2; 25 uM): 51.41%; Infection Data, Percentage Infection Relative to Appropriate DMSO Control with Avg Background Subtraction (SARS2; 50 uM, Exp 2 (SMW492), SILCS 61-66 and 67-72 plates, listed as SICLS62): −0.82% and 2.34%; Infection Data, Average, Mean (Percentage Infection Relative to Appropriate DMSO Control) (SARS2; 50 uM): 23.88%; Toxicity Data, Average, Mean (percentage relative to appropriate DMSO control) (cells (nuclei count); 1 uM): 112.47%; Toxicity Data, Average, Mean (percentage relative to appropriate DMSO control) (cells (nuclei count); 5 uM): 123.92%; Toxicity Data, Average, Mean (percentage relative to appropriate DMSO control) (cells (nuclei count); 10 uM): 116.29%; Toxicity Data, Average, Mean (percentage relative to appropriate DMSO control) (cells (nuclei count); 25 uM): 106.51%; Toxicity Data, Average, Mean (percentage relative to appropriate DMSO control) (cells (nuclei count); 50 uM): 98.08%"
COc1ccc(C2NC(=O)NC(C)=C2C(=O)NCC2CCCCC2)cc1OC (stereo not drawn) [SILCS63],–,–,–,19.08,80.92,53.97,46.03,7.81,92.19,−18.04,118.04,−21.48,121.48,91.73,106.9,114.55,101.91,91.46,78.57,98.68,–
COc1ccc(C2NC(=O)NC(C)=C2C(=O)NCC2CCC2)cc1OC (stereo not drawn) [SILCS64],–,–,–,20.42,79.58,66.48,33.52,−11.17,111.17,−30.68,130.68,−58.69,158.69,102.73,103.13,119.2,92.78,84.89,75.66,95.13,–
CCCCCCCCNC(=O)C1=C(C)NC(=O)NC1c1ccc(OC)c(OC)c1 (stereo not drawn) [SILCS65],–,–,–,12.85,87.15,42.13,57.87,−8.68,108.68,−33.09,133.09,−46.13,146.13,106.58,104.64,115.73,98.27,89.35,75.91,96.78,–
